# Where two headings read alike, the source gives them in different places. Non-standard residues stand in square brackets, D forms with d. Residues, ends and D or L forms follow the SMILES beside them. Aib = CC(C)(N)C(=O)O; Ahx = NCCCCCC(=O)O; βAla = NCCC(=O)O
# Assays:
# [1] = tested on: HEK293T; experiment: Cell viability, non-tumourigenic HEK293T; format: cell-based; conditions: 24 h treatment
# [2] = tested on: nude mice; experiment: Acute toxicity in mice; format: in vivo; conditions: 40 mg/kg (200 μl, 4 mg/ml) intravenous, n=3 per group
# Procedure: (§1) In acute toxicity studies, 12 mice were divided into four groups (n=3 for each group) and administered via intravenous injection with peptide (e8-Uk14, e7-Ur11) at the dose of 20 or 40 mg/kg. In chronic renal toxicity studies, mice were administered via intravenous injection with peptide (e8-Uk14, e7-Ur11) at the dose of 20 mg/kg every other day over a periods of 2 weeks.
# [3] = tested on: kidney; experiment: Chronic renal toxicity, kidney haematoxylin-eosin staining; format: in vivo, mice; conditions: 20 mg/kg i.v. every other day over 2 weeks
# Procedure: as §1
# [4] = tested on: MDA-MB-231 tumour; experiment: In vivo fluorescence imaging and tissue distribution; set-up: species or system mice; conditions: Cy5-labelled peptides, n=2; for tumour accumulation (in vivo fluorescence imaging): 100 μl 50 μM, tail vein, MDA-MB-231 tumour-bearing mice
# Procedure: Four-week-old nude mice were purchased from the Vital River (Beijing, China) and allowed to grow for further two weeks. Approximately 1×10^6 MDA-MB-231 cells were injected into the mammary fat pads of female mice in a vehicle of 4 mg/ml Matrigel (Becton Dickinson and Co., New York, NY, USA). One week later, mice bearing tumours around 50 mm^3 in volume were randomly divided into groups for subsequent experiments.
# For optical imaging, mice were anesthetized with isoflurane. Cy5-labelled peptides were injected intravenously at a dose of 100 μl, 50 μM. At each time point, mice were again anesthetized and imaged using IVIS Spectrum Pre-clinical In Vivo Imaging System (640 nm/680 nm). Fluorescence in manually set regions of interest was quantified by Living Image. The contrast ratio was calculated by dividing the tumour fluorescence by the chest and abdomen fluorescence.
# [5] = tested on: mouse red blood cells; experiment: Haemolytic activity; format: cell-based
# Procedure: Fresh mouse red blood cells were collected and centrifuged at 800 rpm for 5 min. The erythrocytes were washed and re suspended in 0.9% NaCl to 10^8/ml. A serial dilution of peptides were added and incubate at 310 K. After 1 h incubation, erythrocytes were centrifuged and the release of hemoglobin was monitored by measuring the absorbance of supernatant at 570 nm by a microplate reader (PerkinElmer).
# [6] = tested on: MDA-MB-231; experiment: MTT cell viability, MDA-MB-231; format: cell-based, human; conditions: for IC50: 5% FBS medium, 310 K, mean (standard deviation)
# [7] = tested on: MCF-7; conditions: read-out: IC50 (μM), MCF-7; MTT assay, 24 h treatment, 5% FBS medium, 310 K; mean (standard deviation)
# Procedure: (§2) 100 μl of 4×10^4/ml cell suspension (MDA-MB-231, MCF-7, HeLa, SK-OV-3) was placed in each well of the 96-well culture plate and allowed to grow in dulbecco's modified eagle medium or Leibovitz medium (L-15) supplemented with 10% fetal bovine serum overnight. The cells were incubated with serial dilution of compounds at 310 K in 5% fetal bovine serum containing media for 24 h supplied with 5% CO2. At the end of the compounds exposure, 20 μl of 3-(4,5-dimethyl-2-thiazolyl)-2,5-diphenyl-2-H-tetrazolium bromide reagent was added and incubated at 310 K for 4 h. The absorbance of formazan product was measured at 490 nm by a microplate reader (PerkinElmer, Waltham, MA, USA). Cells without peptide were treated as control. *P<0.05, **P<0.01, ***P<0.001 compared with vehicle-treated cells. In Z-VAD-FMK assays, *P<0.05, **P<0.01, ***P<0.001 compared with cells without treatment of Z-VAD-FMK.
# [8] = tested on: SK-OV-3; conditions: read-out: IC50 (μM), SK-OV-3; MTT assay, 24 h treatment, 5% FBS medium, 310 K; mean (standard deviation)
# Procedure: as §2
# [9] = tested on: HeLa; conditions: read-out: IC50 (μM), HeLa; MTT assay, 24 h treatment, 5% FBS medium, 310 K; mean (standard deviation)
# Procedure: as §2
# [10] = tested on: MDA-MB-231; experiment: Cell viability with or without caspase inhibitor Z-VAD-FMK; format: cell-based, human
# [11] = organs excised 6 h after injection
# [12] = mouse red blood cells 10^8/ml in 0.9% NaCl, 1 h, 310 K, absorbance 570 nm
structure (smiles),measurement,setting,value
CC(=O)N[C@H](Cc1c[nH]c2ccccc12)C(=O)NCCC(=O)N[C@H](CCC(=O)O)C(=O)N[C@H](CCC(=O)O)C(=O)N[C@H](CCC(=O)O)C(=O)N[C@H](CCC(=O)O)C(=O)N[C@H](CCC(=O)O)C(=O)N[C@H](CCC(=O)O)C(=O)N[C@H](CCC(=O)O)C(=O)NCCCCCC(=O)N1CCC[C@H]1C(=O)N[C@@H](CC(C)C)C(=O)NCC(=O)N[C@@H](CC(C)C)C(=O)N[C@@H](C)C(=O)NCC(=O)N[C@H](CCCNC(=N)N)C(=O)N[C@H](CC(C)C)C(=O)NC(C)(C)C(=O)N[C@H](CCCNC(=N)N)C(=O)N[C@H](CCCNC(=N)N)C(=O)N[C@H](CC(C)C)C(=O)NC(C)(C)C(=O)N[C@H](CCCNC(=N)N)C(=O)N[C@H](CC(C)C)C(=O)NC(C)(C)C(=O)N[C@H](CCCNC(=N)N)C(N)=O [e7-Ur11],cytotoxicity against non-tumourigenic HEK293T,[1],no obvious cytotoxicity
same,acute toxicity (survival),[2],caused death (one in three survived)
same,kidney histology (haematoxylin-eosin staining),[3],bleeding was observed at the junction of renal
same,tumour accumulation (in vivo fluorescence imaging),[4],significantly higher accumulation in tumours compared to unmodified peptides
same,uptake in excised tumour,[4]; [11],higher compared to UK14 and Ur11
same,haemolytic activity,[5]; [12],diminished membrane disruption and haemolysis
CC(=O)N[C@H](Cc1c[nH]c2ccccc12)C(=O)NCCC(=O)N[C@H](CC(C)C)C(=O)NC(C)(C)C(=O)N[C@H](CCCNC(=N)N)C(=O)N[C@H](CCCNC(=N)N)C(=O)N[C@H](CC(C)C)C(=O)NC(C)(C)C(=O)N[C@H](CCCNC(=N)N)C(=O)N[C@H](CC(C)C)C(=O)NC(C)(C)C(=O)N[C@H](CCCNC(=N)N)C(N)=O [Ur10] (Ac-[dW][βAla][dL][Aib][dR][dR][dL][Aib][dR][dL][Aib][dR]-NH2),cytotoxic activity towards MDA-MB-231 cells (in words),"[6]; MTT assay, 24 h treatment",greatly diminished activity
CC(=O)N[C@H](Cc1c[nH]c2ccccc12)C(=O)NCCC(=O)N[C@H](CCCCN)C(=O)N[C@H](CC(C)C)C(=O)NC(C)(C)C(=O)N[C@H](CCCCN)C(=O)N[C@H](CCCCN)C(=O)N[C@H](CC(C)C)C(=O)NC(C)(C)C(=O)N[C@H](CCCCN)C(=O)N[C@H](CC(C)C)C(=O)NC(C)(C)C(=O)N[C@H](CCCCN)C(N)=O [Uk11] (Ac-[dW][βAla][dK][dL][Aib][dK][dK][dL][Aib][dK][dL][Aib][dK]-NH2),cytotoxic activity towards MDA-MB-231 cells (in words),"[6]; MTT assay, 24 h treatment",decreased efficiency
CC(=O)N[C@H](Cc1c[nH]c2ccccc12)C(=O)NCCC(=O)N[C@H](CCCCN)C(=O)N[C@H](CC(C)C)C(=O)NC(C)(C)C(=O)N[C@H](CCCCN)C(=O)N[C@H](CC(C)C)C(=O)NC(C)(C)C(=O)N[C@H](CCCCN)C(=O)N[C@H](CCCCN)C(=O)N[C@H](CC(C)C)C(=O)NC(C)(C)C(=O)N[C@H](CCCCN)C(=O)N[C@H](CC(C)C)C(=O)NC(C)(C)C(=O)N[C@H](CCCCN)C(N)=O [Uk14] (Ac-[dW][βAla][dK][dL][Aib][dK][dL][Aib][dK][dK][dL][Aib][dK][dL][Aib][dK]-NH2),IC50,"[6]; MTT assay, 24 h treatment",4.5 µM
same,IC50,[7],4.7 µM
same,IC50,[8],5.1 µM
same,IC50,[9],4.8 µM
same,effect of caspase inhibitor Z-VAD-FMK on cytotoxic effect,[10],did not block
same,haemolytic activity,[5],strong haemolytic activity
CC(=O)N[C@H](Cc1c[nH]c2ccccc12)C(=O)NCCC(=O)N[C@H](CCCCN)C(=O)N[C@H](CC(C)C)C(=O)N[C@H](C)C(=O)N[C@H](CCCCN)C(=O)N[C@H](CC(C)C)C(=O)N[C@H](C)C(=O)N[C@H](CCCCN)C(=O)N[C@H](CCCCN)C(=O)N[C@H](CC(C)C)C(=O)N[C@H](C)C(=O)N[C@H](CCCCN)C(=O)N[C@H](CC(C)C)C(=O)N[C@H](C)C(=O)N[C@H](CCCCN)C(N)=O [ak14],cytotoxic activity towards MDA-MB-231 cells (in words),"[6]; MTT assay, 24 h treatment",only moderate efficiency
same,IC50,"[6]; MTT assay, 24 h treatment",> 30 µM
CC(=O)N[C@H](Cc1c[nH]c2ccccc12)C(=O)NCCC(=O)N[C@H](CCC(=O)O)C(=O)N[C@H](CCC(=O)O)C(=O)N[C@H](CCC(=O)O)C(=O)N[C@H](CCC(=O)O)C(=O)N[C@H](CCC(=O)O)C(=O)N[C@H](CCC(=O)O)C(=O)N[C@H](CCC(=O)O)C(=O)N[C@H](CCC(=O)O)C(=O)NCCCCCC(=O)N1CCC[C@H]1C(=O)N[C@@H](CC(C)C)C(=O)NCC(=O)N[C@@H](CC(C)C)C(=O)N[C@@H](C)C(=O)NCC(=O)N[C@H](CCCCN)C(=O)N[C@H](CC(C)C)C(=O)NC(C)(C)C(=O)N[C@H](CCCCN)C(=O)N[C@H](CC(C)C)C(=O)NC(C)(C)C(=O)N[C@H](CCCCN)C(=O)N[C@H](CCCCN)C(=O)N[C@H](CC(C)C)C(=O)NC(C)(C)C(=O)N[C@H](CCCCN)C(=O)N[C@H](CC(C)C)C(=O)NC(C)(C)C(=O)N[C@H](CCCCN)C(N)=O [e8-Uk14] (Ac-[dW][βAla][dE][dE][dE][dE][dE][dE][dE][dE][Ahx]PLGLAG[dK][dL][Aib][dK][dL][Aib][dK][dK][dL][Aib][dK][dL][Aib][dK]-NH2),cytotoxicity against non-tumourigenic HEK293T,[1],no obvious cytotoxicity
same,acute toxicity (survival),[2],no acute toxicity
same,tumour accumulation (in vivo fluorescence imaging),[4],significantly higher accumulation in tumours compared to unmodified peptides
same,accumulation in kidney,[4]; [11],lower accumulation in the kidney
same,accumulation in liver,[4]; [11],higher accumulation in the liver
same,uptake in excised tumour,[4]; [11],higher compared to UK14 and Ur11
same,haemolytic activity,[5]; [12],diminished membrane disruption and haemolysis
CC(=O)N[C@H](Cc1c[nH]c2ccccc12)C(=O)NCCC(=O)N[C@H](CC(C)C)C(=O)N[C@H](CC(C)C)C(=O)N[C@H](CC(C)C)C(=O)N[C@H](CC(C)C)C(=O)NC(C)(C)C(=O)NC(C)(C)C(=O)NC(C)(C)C(=O)NC(C)(C)C(=O)N[C@H](CCCCN)C(=O)N[C@H](CCCCN)C(=O)N[C@H](CCCCN)C(=O)N[C@H](CCCCN)C(=O)N[C@H](CCCCN)C(=O)N[C@H](CCCCN)C(N)=O [lUk] (Ac-[dW][βAla][dL][dL][dL][dL][Aib][Aib][Aib][Aib][dK][dK][dK][dK][dK][dK]-NH2),cytotoxic activity towards MDA-MB-231 cells (in words),"[6]; MTT assay, 24 h treatment",decreased efficiency
CC(=O)N[C@H](Cc1c[nH]c2ccccc12)C(=O)NCCC(=O)N[C@H](CCCNC(=N)N)C(=O)N[C@H](CC(C)C)C(=O)NC(C)(C)C(=O)N[C@H](CCCNC(=N)N)C(=O)N[C@H](CCCNC(=N)N)C(=O)N[C@H](CC(C)C)C(=O)NC(C)(C)C(=O)N[C@H](CCCNC(=N)N)C(=O)N[C@H](CC(C)C)C(=O)NC(C)(C)C(=O)N[C@H](CCCNC(=N)N)C(N)=O [Ur11] (Ac-[dW][βAla][dR][dL][Aib][dR][dR][dL][Aib][dR][dL][Aib][dR]-NH2),cytotoxic activity towards MDA-MB-231 cells (in words),[6],no change in activity
same,IC50,"[6]; MTT assay, 24 h treatment",8.9 µM
same,IC50,[7],5.6 µM
same,IC50,[8],5.1 µM
same,IC50,[9],5.9 µM
same,effect of caspase inhibitor Z-VAD-FMK on cytotoxic effect,[10],did not block
same,haemolytic activity,[5],strong haemolytic activity
CC(=O)N[C@H](Cc1c[nH]c2ccccc12)C(=O)NCCC(=O)N[C@H](CCCNC(=N)N)C(=O)N[C@H](CC(C)C)C(=O)NC(C)(C)C(=O)N[C@H](CCCNC(=N)N)C(=O)N[C@H](CC(C)C)C(=O)NC(C)(C)C(=O)N[C@H](CCCNC(=N)N)C(=O)N[C@H](CCCNC(=N)N)C(=O)N[C@H](CC(C)C)C(=O)NC(C)(C)C(=O)N[C@H](CCCNC(=N)N)C(=O)N[C@H](CC(C)C)C(=O)NC(C)(C)C(=O)N[C@H](CCCNC(=N)N)C(N)=O [Ur14] (Ac-[dW][βAla][dR][dL][Aib][dR][dL][Aib][dR][dR][dL][Aib][dR][dL][Aib][dR]-NH2),cytotoxic activity towards MDA-MB-231 cells (in words),"[6]; MTT assay, 24 h treatment",no significant improvements
